The IC50 is the concentration that inhibits the measured activity by half.

The record followed here is ChEMBL document CHEMBL6074641, “Polypharmacological Drug Design Guided by Integrating Phenotypic and Restricted Fragment Docking Strategies” (J Med Chem, 2024).

Series [1] deals with T1, Mitogen-activated protein kinase kinase kinase kinase 4 (Homo sapiens, UniProt O95819). Kind of series: Inhibition of recombinant MAP4K4 (1 to 328 residues) (unknown origin) expressed in Escherichia coli BL21([…]) using MBP as substrate preincubated for 15 mins followed by substrate and ATP addition and measured after 90 mins by ADP-Glo luminescence […] assay. For orientation: ADP-Glo turns the ADP formed in a reaction into a luminescent signal.
Target sequence in this assay (O95819 whole entry, the tested form may be a part): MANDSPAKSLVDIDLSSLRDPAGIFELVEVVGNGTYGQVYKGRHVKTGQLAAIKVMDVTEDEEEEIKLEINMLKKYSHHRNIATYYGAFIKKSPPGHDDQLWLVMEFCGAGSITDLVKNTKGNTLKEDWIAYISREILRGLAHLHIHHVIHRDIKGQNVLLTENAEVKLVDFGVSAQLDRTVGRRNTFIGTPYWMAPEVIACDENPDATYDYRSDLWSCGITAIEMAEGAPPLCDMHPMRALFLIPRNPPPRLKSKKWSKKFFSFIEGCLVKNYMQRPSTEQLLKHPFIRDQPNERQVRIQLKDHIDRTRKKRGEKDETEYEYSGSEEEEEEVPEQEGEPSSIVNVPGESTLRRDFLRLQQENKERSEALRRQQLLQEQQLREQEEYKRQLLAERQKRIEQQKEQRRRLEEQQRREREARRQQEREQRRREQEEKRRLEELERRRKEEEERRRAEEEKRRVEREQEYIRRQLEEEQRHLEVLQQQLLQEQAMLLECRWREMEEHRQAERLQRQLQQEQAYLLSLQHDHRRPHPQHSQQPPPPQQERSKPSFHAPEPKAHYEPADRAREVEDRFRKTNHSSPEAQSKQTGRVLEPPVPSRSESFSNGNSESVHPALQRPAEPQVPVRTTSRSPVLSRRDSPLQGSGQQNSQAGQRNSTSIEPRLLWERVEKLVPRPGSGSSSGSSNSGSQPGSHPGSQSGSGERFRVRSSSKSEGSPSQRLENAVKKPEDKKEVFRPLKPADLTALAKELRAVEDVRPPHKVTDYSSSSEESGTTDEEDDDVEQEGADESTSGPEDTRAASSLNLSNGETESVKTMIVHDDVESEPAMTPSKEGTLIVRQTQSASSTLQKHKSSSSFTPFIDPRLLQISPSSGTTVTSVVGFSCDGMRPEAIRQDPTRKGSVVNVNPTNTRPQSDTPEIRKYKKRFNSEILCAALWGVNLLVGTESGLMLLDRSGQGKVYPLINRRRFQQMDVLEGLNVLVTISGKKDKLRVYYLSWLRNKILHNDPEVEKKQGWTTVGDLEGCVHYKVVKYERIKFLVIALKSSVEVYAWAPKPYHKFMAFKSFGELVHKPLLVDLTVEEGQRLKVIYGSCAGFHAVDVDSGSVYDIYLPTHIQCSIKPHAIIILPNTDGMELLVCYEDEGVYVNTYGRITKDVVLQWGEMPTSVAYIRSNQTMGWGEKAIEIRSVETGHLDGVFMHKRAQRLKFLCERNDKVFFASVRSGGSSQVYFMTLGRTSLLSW

For series [2], the target named is T1, Mitogen-activated protein kinase kinase kinase kinase 4. As to the kind of experiment: Inhibition of MAP4K4 (unknown origin) at 1 uM.
Target sequence in this assay (O95819 2-1239 limits assumed): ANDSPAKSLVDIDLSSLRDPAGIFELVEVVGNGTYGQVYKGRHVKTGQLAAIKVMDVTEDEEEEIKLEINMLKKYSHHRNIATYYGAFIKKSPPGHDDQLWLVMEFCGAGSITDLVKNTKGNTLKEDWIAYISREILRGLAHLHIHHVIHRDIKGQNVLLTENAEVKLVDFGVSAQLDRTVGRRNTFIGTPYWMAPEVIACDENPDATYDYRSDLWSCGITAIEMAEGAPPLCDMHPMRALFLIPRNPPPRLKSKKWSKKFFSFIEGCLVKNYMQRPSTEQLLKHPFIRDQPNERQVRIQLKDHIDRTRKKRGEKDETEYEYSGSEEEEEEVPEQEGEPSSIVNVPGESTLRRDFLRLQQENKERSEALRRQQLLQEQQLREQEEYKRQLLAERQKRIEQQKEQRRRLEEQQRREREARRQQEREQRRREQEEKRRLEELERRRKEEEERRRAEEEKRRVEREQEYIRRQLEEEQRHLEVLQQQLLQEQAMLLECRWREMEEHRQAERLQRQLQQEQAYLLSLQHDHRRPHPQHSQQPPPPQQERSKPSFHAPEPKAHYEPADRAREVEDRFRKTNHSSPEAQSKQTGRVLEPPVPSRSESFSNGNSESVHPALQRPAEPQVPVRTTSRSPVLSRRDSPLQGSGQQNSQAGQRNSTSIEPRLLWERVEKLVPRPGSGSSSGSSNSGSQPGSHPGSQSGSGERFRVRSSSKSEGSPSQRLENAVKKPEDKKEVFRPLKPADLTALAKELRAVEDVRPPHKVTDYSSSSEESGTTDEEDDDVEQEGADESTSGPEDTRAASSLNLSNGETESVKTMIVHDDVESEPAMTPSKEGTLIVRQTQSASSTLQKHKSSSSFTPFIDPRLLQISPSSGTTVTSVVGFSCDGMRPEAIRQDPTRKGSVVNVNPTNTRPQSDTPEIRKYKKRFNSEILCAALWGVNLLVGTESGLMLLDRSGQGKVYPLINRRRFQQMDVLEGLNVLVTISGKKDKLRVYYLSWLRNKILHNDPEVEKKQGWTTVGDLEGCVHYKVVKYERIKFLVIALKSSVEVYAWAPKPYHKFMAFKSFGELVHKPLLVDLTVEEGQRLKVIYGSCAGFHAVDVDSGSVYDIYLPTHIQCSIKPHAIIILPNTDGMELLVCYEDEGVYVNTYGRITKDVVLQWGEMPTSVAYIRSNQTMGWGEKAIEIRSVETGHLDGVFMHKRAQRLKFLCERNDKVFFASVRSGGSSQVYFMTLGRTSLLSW
Series [3] concerns the target Receptor-interacting serine/threonine-protein kinase 1 (Mus musculus) (UniProt Q60855). As to the kind of experiment: Inhibition of RIPK1 activation in mouse BV-2 cells by Western blotting analysis. The series is classed as cell-based. As to conditions: dose 4-100 nM. On the technique in general: Immunoblotting shows a protein as a band on a membrane.
The target of series [4] is Mitogen-activated protein kinase kinase kinase kinase 4 (Mus musculus) (UniProt P97820). As to the kind of experiment: Inhibition of MAP4K4 activation in mouse BV-2 cells by Western blotting analysis. The conditions noted are these: dose 4-100 nM. The series is classed as cell-based.
Series [5] concerns the target ALK tyrosine kinase receptor (Mus musculus) (UniProt P97793). As to the kind of experiment: Inhibition of ALK activation in mouse BV-2 cells by Western blotting analysis. The series is classed as cell-based. As to conditions: dose 4-100 nM.
Series [6] concerns Microglia. Kind of series: Anti-necroptosis activity in LPS/zVAD stimulated mouse primary microglia overexpressed with RIPK1 assessed as reversal of severe membrane disruption by TEM analysis. The series is classed as functional, cell-based.
A short description of series [7]: Unbound plasma protein binding in human incubated for 24 hrs by HPLC based equilibrium dialysis method. The series is classed as ADME, cell-free. A general note: In equilibrium dialysis free small molecules cross a membrane that holds back macromolecules.

The structures appear in SMILES notation. Activity calls are given as the source filed them. The rule behind the calls is not given here.

Sequence of Receptor-interacting serine/threonine-protein kinase 1 (Mus musculus) (Q60855 whole entry): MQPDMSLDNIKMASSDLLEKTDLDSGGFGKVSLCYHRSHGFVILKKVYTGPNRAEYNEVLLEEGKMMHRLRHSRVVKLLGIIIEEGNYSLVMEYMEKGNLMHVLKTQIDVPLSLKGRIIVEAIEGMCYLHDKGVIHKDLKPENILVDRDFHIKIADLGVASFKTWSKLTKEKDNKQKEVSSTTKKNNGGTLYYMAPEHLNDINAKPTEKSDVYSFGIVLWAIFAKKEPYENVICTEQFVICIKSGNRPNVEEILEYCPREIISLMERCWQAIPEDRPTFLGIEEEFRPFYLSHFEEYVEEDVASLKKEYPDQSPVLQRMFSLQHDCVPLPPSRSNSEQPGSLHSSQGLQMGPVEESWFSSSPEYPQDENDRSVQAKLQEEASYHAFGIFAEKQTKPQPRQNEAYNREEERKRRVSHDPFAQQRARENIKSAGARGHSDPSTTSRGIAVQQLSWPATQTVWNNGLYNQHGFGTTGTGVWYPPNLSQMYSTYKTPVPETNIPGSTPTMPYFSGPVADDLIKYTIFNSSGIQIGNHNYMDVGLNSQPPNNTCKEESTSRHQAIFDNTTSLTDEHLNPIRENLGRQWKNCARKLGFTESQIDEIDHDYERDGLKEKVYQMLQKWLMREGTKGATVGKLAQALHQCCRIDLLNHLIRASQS
Sequence of Mitogen-activated protein kinase kinase kinase kinase 4 (Mus musculus) (P97820 whole entry): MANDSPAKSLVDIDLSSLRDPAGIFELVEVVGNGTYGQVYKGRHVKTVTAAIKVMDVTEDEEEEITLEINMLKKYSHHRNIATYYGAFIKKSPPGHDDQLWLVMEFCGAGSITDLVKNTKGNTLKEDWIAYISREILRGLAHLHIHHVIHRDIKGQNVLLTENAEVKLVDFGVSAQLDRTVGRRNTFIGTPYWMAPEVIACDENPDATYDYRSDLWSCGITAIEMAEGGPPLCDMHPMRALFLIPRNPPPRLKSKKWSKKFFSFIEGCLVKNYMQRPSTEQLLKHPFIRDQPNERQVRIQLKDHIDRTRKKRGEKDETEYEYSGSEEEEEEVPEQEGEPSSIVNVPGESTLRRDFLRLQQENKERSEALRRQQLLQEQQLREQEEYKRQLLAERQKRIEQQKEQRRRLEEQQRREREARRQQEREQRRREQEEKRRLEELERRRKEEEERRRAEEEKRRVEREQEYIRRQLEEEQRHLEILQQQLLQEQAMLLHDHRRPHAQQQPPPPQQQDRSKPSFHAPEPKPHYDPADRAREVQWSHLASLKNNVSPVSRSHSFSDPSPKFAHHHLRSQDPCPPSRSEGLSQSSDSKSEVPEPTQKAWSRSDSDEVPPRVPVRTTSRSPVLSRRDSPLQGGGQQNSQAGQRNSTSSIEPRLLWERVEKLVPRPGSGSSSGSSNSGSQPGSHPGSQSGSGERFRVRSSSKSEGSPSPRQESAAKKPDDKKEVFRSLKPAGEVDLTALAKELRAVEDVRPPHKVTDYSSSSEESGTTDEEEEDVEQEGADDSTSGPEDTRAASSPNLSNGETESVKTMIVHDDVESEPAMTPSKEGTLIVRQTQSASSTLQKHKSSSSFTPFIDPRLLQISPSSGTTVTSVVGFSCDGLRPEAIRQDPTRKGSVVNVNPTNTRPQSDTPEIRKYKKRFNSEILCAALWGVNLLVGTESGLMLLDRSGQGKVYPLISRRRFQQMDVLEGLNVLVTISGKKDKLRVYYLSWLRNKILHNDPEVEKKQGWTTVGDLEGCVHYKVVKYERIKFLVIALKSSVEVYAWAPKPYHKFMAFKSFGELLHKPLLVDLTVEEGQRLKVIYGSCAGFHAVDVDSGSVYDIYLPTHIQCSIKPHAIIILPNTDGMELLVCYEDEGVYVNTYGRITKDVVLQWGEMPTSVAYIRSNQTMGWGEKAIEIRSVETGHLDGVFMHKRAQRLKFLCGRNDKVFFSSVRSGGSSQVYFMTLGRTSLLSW

For `Cc1cc(F)cc(Nc2ncc(Nc3ccc(SC(F)(F)F)cc3)cc2C(N)=O)c1`, in series [1], the IC50 was determined as 410 nM. In addition, the inhibition entry in series [2] was “Active”. Also, the inhibition result in series [3], in series [4] and in series [5] was “Dose-dependent-effect” in each case. The outcome in series [6] was inactive. In addition, the Fu in series [7] was found to be 0.1%.
